# Where “and” joins values, the source holds several entries; their conditions need not be identical. Equal values may be shown once. Inconclusive results are not listed.
# Test system: MX-1 breast xenograft, intrarenal, nude mice, tumor weight
# Test: NCI In Vivo Anticancer Drug Screen. Data for tumor model Human Mammary Carcinoma MX-1 Xenograft (intrarenal inoculation) in NU/NU BALB/C (nude) mice
# Conditions: endpoint: mean tumor weight change, higher = larger tumour
# Protocol: The antitumor activity of compounds was measured in mice bearing transplantable tumors. Survival or tumor size were measured and the results are expressed as the measurement made in the treated group (T) divided by the measurement made in the vehicle treated control group (C). The tumor model used in this assay is Human Mammary Carcinoma MX-1 Xenograft (intrarenal inoculation) in NU/NU BALB/C (nude) mice
# [1] = dose: 150.0 mg/kg/injection, schedule: Q04DX003 (ip), vehicle: saline with Tween-80
# [2] = dose: 75.0 mg/kg/injection, schedule: Q04DX003 (ip), vehicle: Klucel (hydroxypropylcellulose) (HPC)
# [3] = dose: 150.0 mg/kg/injection, schedule: Q04DX003 (ip), vehicle: Klucel (hydroxypropylcellulose) (HPC)
# [4] = dose: 300.0 mg/kg/injection, schedule: Q04DX003 (ip), vehicle: Klucel (hydroxypropylcellulose) (HPC)
# [5] = dose: 12.5 mg/kg/injection, schedule: Q04DX003 (ip), vehicle: saline with Tween-80
# [6] = dose: 25.0 mg/kg/injection, schedule: Q04DX003 (ip), vehicle: saline with Tween-80
# [7] = dose: 37.5 mg/kg/injection, schedule: Q04DX003 (ip), vehicle: Klucel (hydroxypropylcellulose) (HPC)
# [8] = dose: 2.0 mg/kg/injection, schedule: Q04DX003 (ip), vehicle: Klucel (hydroxypropylcellulose) (HPC)
# [9] = dose: 4.0 mg/kg/injection, schedule: Q04DX003 (ip), vehicle: Klucel (hydroxypropylcellulose) (HPC)
# [10] = dose: 600.0 mg/kg/injection, schedule: Q04DX003 (ip), vehicle: Klucel (hydroxypropylcellulose) (HPC)
# [11] = dose: 1200.0 mg/kg/injection, schedule: Q04DX003 (ip), vehicle: Klucel (hydroxypropylcellulose) (HPC)
smiles,measurement,setting,value
CCC1OC(OC)C=CC1=O (stereo unspecified),T/C,"dose: 18.75 mg/kg/injection, schedule: Q04DX003 (sc), vehicle: saline",112 % of control
same,T/C,"dose: 37.5 mg/kg/injection, schedule: Q04DX003 (sc), vehicle: saline",63 % of control
same,T/C,"dose: 75.0 mg/kg/injection, schedule: Q04DX003 (sc), vehicle: saline",98 % of control
Nc1ccn(C2CC(N)C(CO)O2)c(=O)n1 (stereo unspecified),T/C,"dose: 75.0 mg/kg/injection, schedule: Q04DX003 (ip), vehicle: saline with Tween-80",77 % of control
same,T/C,[1],105 % of control
same,T/C,"dose: 300.0 mg/kg/injection, schedule: Q04DX003 (ip), vehicle: saline with Tween-80",74 % of control
same,T/C,"dose: 600.0 mg/kg/injection, schedule: Q04DX003 (ip), vehicle: saline with Tween-80",82 % of control
Cc1ccc2c(c1)C1(SC(C)C(=O)N1c1ccc(Cl)cc1)C(=O)N2 (stereo unspecified),T/C,"dose: 100.0 mg/kg/injection, schedule: Q04DX003 (ip), vehicle: saline with Tween-80",107 % of control
same,T/C,"dose: 200.0 mg/kg/injection, schedule: Q04DX003 (ip), vehicle: saline with Tween-80",85 % of control
same,T/C,"dose: 800.0 mg/kg/injection, schedule: Q04DX003 (ip), vehicle: saline with Tween-80",72 % of control
C=CCOc1cc2c(cc1C(C)c1ccc(OC)cc1)OCO2 (stereo unspecified),T/C,[2],73 % of control
same,T/C,[3],91 % of control
same,T/C,[4],94 % of control
S=C(N/N=C1/CCCC/C1=N/NC(=S)N1CCOCC1)N1CCOCC1,T/C,"dose: 6.25 mg/kg/injection, schedule: Q04DX003 (ip), vehicle: saline with Tween-80",81 % of control
same,T/C,[5],76 % of control
same,T/C,[6],48 % of control
COC1/C=C/C=C(/C)Cc2cc(O)c(Cl)c(c2)N(C)C(=O)CC(OC(=O)C(C)C)C2(C)OC2C(C)C2CC1(O)NC(=O)O2 (stereo unspecified),T/C,"dose: 1.0 mg/kg/injection, schedule: Q04DX003 (sc), vehicle: saline + alcohol",70 % of control
same,T/C,"dose: 2.0 mg/kg/injection, schedule: Q04DX003 (sc), vehicle: saline + alcohol",33 % of control
same,T/C,"dose: 4.0 mg/kg/injection, schedule: Q04DX003 (sc), vehicle: saline + alcohol",-47 % of control
same,T/C,"dose: 8.0 mg/kg/injection, schedule: Q04DX003 (sc), vehicle: saline + alcohol",-100 % of control
O=C(O)CC1C(=O)OC2C3COC(=O)c4cc(O)c(O)c(O)c4-c4c(cc(O)c(O)c4O)C(=O)OC2C(OC(=O)c2cc(O)c(O)c4c2C1C(O)C(=O)O4)C(OC(=O)c1cc(O)c(O)c(O)c1)O3 (stereo unspecified),T/C,"dose: 25.0 mg/kg/injection, schedule: Q04DX003 (ip), vehicle: saline",120 % of control
same,T/C,"dose: 50.0 mg/kg/injection, schedule: Q04DX003 (ip), vehicle: saline",99 % of control
same,T/C,"dose: 100.0 mg/kg/injection, schedule: Q04DX003 (ip), vehicle: saline",73 % of control
COc1cc2c(c3c1c(=O)c1ccccc1n3C)C=CC(C)(C)O2,T/C,[7],54 % of control
same,T/C,[2],40 % of control
same,T/C,[3],21 % of control
Cc1ccc2c(c1)C1(C)OC(C=CC1=O)O2 (stereo unspecified),T/C,[3],94 % of control
COC(COC(=O)N1CCN(C=O)CC1)C1=C(N2CC2)C(=O)C(C)=C(N2CC2)C1=O (stereo unspecified),T/C,"dose: 3.0 mg/kg/injection, schedule: Q04DX003 (ip), vehicle: saline",5 % of control and -16 % of control
NS(=O)(=O)OCCCCCCCOS(N)(=O)=O,T/C,[1],-40 % of control
CN(Cc1cnc2nc(N)nc(N)c2n1)c1ccc(C(=O)NC(CCC(=O)OCc2cc3c(cc2Cl)OCO3)C(=O)OCc2cc3c(cc2Cl)OCO3)cc1 (stereo unspecified),T/C,"dose: 7.5 mg/kg/injection, schedule: Q04DX003 (ip), vehicle: saline with Tween-80",75 % of control
CN(C)CCCOc1nc2c(c(=O)n(C)c(=O)n2C)n1C (tested in a mixture with another compound),T/C,[7],75 % of control
same,T/C,[2],63 % of control and 65 % of control
same,T/C,[3],58 % of control and 62 % of control
same,T/C,[4],19 % of control and 20 % of control
COc1ccc([C@@]23Oc4cc(OC)cc(OC)c4[C@]2(O)[C@H](O)[C@H](C(=O)N(C)C)[C@H]3c2ccccc2)cc1,T/C,[8],92 % of control
same,T/C,[9],79 % of control
same,T/C,"dose: 8.0 mg/kg/injection, schedule: Q04DX003 (ip), vehicle: Klucel (hydroxypropylcellulose) (HPC)",79 % of control
same,T/C,"dose: 16.0 mg/kg/injection, schedule: Q04DX003 (ip), vehicle: Klucel (hydroxypropylcellulose) (HPC)",88 % of control
C/C(=N\NC(=S)N1CC2CCC(CC2)C1)c1cccc(C)n1,T/C,[5],77 % of control
same,T/C,[6],62 % of control
same,T/C,"dose: 50.0 mg/kg/injection, schedule: Q04DX003 (ip), vehicle: saline with Tween-80",78 % of control
CCOC1NC(=O)Oc2ccccc21 (stereo unspecified),T/C,[3],80 % of control
same,T/C,[4],74 % of control
same,T/C,[10],86 % of control
same,T/C,[11],79 % of control
CO[C@@]12[C@H](COC(N)=O)C3=C(C(=O)C(C)=C(N)C3=O)N1C[C@@H]1N[C@@H]12,T/C,"dose: 1.5 mg/kg/injection, schedule: Q04DX003 (sc), vehicle: saline",9 % of control and 14 % of control
same,T/C,"dose: 6.0 mg/kg/injection, schedule: Q04DX003 (ip), vehicle: suspension in saline",-100 % of control
same,T/C,"dose: 8.0 mg/kg/injection, schedule: Q04DX003 (ip), vehicle: suspension in saline",-100 % of control
CC[C@](C)(O)C(=O)O[C@H]1C(=O)O[C@@H]2C[C@H]3C(C)=CC(=O)[C@@H](O)[C@]3(C)[C@H]3[C@@]4(O)OC[C@]32[C@@H]1[C@@H](C)[C@H]4O,T/C,"dose: 0.25 mg/kg/injection, schedule: Q01DX010 (sc), vehicle: Klucel (hydroxypropylcellulose) (HPC)",23 % of control
same,T/C,"dose: 0.5 mg/kg/injection, schedule: Q01DX010 (sc), vehicle: Klucel (hydroxypropylcellulose) (HPC)",2 % of control
CN(Cc1cnc2nc(N)nc(N)c2n1)c1ccc(C(=O)N[C@@H](CCC(=O)O)C(=O)O)cc1,T/C,"dose: 3.0 mg/kg/injection, schedule: Q04DX003 (sc), vehicle: sodium bicarbonate",152 % of control
same,T/C,"dose: 6.0 mg/kg/injection, schedule: Q04DX003 (sc), vehicle: sodium bicarbonate",162 % of control
same,T/C,"dose: 12.0 mg/kg/injection, schedule: Q04DX003 (sc), vehicle: sodium bicarbonate",112 % of control
same,T/C,"dose: 18.0 mg/kg/injection, schedule: Q04DX003 (ip), vehicle: sodium bicarbonate",55 % of control
same,T/C,"dose: 24.0 mg/kg/injection, schedule: Q04DX003 (sc), vehicle: sodium bicarbonate",80 % of control
Nc1ccn([C@@H](C=O)C[C@@H](C=O)CO)c(=O)n1,T/C,"dose: 75.0 mg/kg/injection, schedule: Q04DX003 (ip), vehicle: saline",76 % of control
same,T/C,"dose: 150.0 mg/kg/injection, schedule: Q04DX003 (ip), vehicle: saline",124 % of control
CC1(C)CC(=O)C(CSC(=O)c2ccccc2)C(=O)C1,T/C,"dose: 75.0 mg/kg/injection, schedule: Q04DX003 (sc), vehicle: Klucel (hydroxypropylcellulose) (HPC)",101 % of control
same,T/C,"dose: 150.0 mg/kg/injection, schedule: Q04DX003 (sc), vehicle: Klucel (hydroxypropylcellulose) (HPC)",101 % of control
same,T/C,"dose: 300.0 mg/kg/injection, schedule: Q04DX003 (sc), vehicle: Klucel (hydroxypropylcellulose) (HPC)",101 % of control
COC(=O)C12OCC34C(CC5C(C)C6=CC(=O)OC6=CC5(C)C3C(O)C1O)OC(=O)C(O)C24 (stereo unspecified),T/C,"dose: 0.5 mg/kg/injection, schedule: Q04DX003 (ip), vehicle: Klucel (hydroxypropylcellulose) (HPC)",75 % of control
same,T/C,"dose: 1.0 mg/kg/injection, schedule: Q04DX003 (ip), vehicle: Klucel (hydroxypropylcellulose) (HPC)",77 % of control
same,T/C,[8],69 % of control
same,T/C,[9],45 % of control
CC(=O)OCC(=O)[C@@]12OC(C)(C)O[C@@H]1C[C@H]1[C@@H]3CC(C=O)=C4C=C(OCCCl)CC[C@]4(C)[C@@]3(F)[C@@H](O)C[C@@]12C,T/C,"dose: 25.0 mg/kg/injection, schedule: Q04DX003 (sc), vehicle: Klucel (hydroxypropylcellulose) (HPC)",93 % of control
same,T/C,"dose: 50.0 mg/kg/injection, schedule: Q04DX003 (sc), vehicle: Klucel (hydroxypropylcellulose) (HPC)",81 % of control
same,T/C,"dose: 100.0 mg/kg/injection, schedule: Q04DX003 (sc), vehicle: Klucel (hydroxypropylcellulose) (HPC)",71 % of control
same,T/C,"dose: 200.0 mg/kg/injection, schedule: Q04DX003 (sc), vehicle: Klucel (hydroxypropylcellulose) (HPC)",78 % of control
CN=C(NC)c1ccc(NC(=O)/C=C\c2ccc(/C=C/C(=O)Nc3ccc(C(=NC)NC)cc3)cc2)cc1,T/C,"dose: 6.25 mg/kg/injection, schedule: Q04DX003 (ip), vehicle: Klucel (hydroxypropylcellulose) (HPC)",89 % of control
NC(N)=NS(=O)(=O)c1ccc(NCc2c3ccccc3nc3ccccc23)cc1,T/C,[3],38 % of control and 41 % of control
same,T/C,[4],40 % of control and 43 % of control
same,T/C,[10],17 % of control and 22 % of control
same,T/C,[11],11 % of control and 17 % of control
N=C(N)c1ccc(N=Nc2c(O)ccc3cc(O)ccc23)cc1,T/C,[2],98 % of control and 123 % of control
same,T/C,[3],95 % of control and 117 % of control
same,T/C,[4],70 % of control

# From PubChem BioAssay AID298 (DTP/NCI, 2004)
